This passage reports IC50 and inhibition results from ChEMBL document CHEMBL1921705, “Thiophene inhibitors of PDE4: crystal structures show a second binding mode at the catalytic domain of PDE4D2” (Bioorg Med Chem Lett, 2011).

Active and inactive are the calls of the source. The calls are words filed in the database; no cut-off is given here.

Test [1] deals with T1, 3',5'-cyclic-AMP phosphodiesterase 4D (Homo sapiens, UniProt Q08499). Briefly: Inhibition of human recombinant PDE4D2 overexpressed in Escherichia coli after 15 mins using [3H]cAMP by scintillation proximity assay. (In general: SPA uses beads or plates that emit light when radiolabelled molecules are held near them.)
T1 sequence (Q08499 whole entry): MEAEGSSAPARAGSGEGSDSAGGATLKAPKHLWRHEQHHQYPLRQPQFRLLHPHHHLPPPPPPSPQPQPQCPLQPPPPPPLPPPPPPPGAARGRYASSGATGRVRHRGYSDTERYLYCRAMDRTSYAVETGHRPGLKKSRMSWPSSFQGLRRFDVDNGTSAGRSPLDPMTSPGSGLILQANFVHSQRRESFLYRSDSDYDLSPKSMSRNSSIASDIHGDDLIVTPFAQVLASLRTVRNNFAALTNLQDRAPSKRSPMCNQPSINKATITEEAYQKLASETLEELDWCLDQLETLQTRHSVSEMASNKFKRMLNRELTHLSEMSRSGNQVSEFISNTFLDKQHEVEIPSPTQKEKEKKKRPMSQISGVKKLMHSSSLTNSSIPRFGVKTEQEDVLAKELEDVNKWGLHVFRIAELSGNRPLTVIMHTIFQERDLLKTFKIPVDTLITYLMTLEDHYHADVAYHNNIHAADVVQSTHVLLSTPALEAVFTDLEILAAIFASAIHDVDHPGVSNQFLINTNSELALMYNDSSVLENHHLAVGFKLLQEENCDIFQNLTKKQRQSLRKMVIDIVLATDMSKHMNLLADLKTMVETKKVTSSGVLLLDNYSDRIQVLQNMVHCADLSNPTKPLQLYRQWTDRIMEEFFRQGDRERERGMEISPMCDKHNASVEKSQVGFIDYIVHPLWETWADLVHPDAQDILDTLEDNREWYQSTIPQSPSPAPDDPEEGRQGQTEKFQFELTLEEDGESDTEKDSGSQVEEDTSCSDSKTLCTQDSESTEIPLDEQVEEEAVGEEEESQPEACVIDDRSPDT
For test [2], the target named is T1, 3',5'-cyclic-AMP phosphodiesterase 4D. As to the kind of experiment: Inhibition of N-terminal 6His-tagged human recombinant PDE4D2 expressed in Escherichia coli BL21 (DE3) at 1 uM after 15 mins using [3H]cAMP by scintillation proximity assay.
Test [3] relates to UMR106. Briefly: Inhibition of PDE4D2 in rat UMR106 cells coexpressing pCRE-luc assessed as activation of cREB protein at 10 uM after 4 hrs by measuring luciferase activity by luminescence assay. Type of test: cell-based.
The subject of test [4] is UMR106. As to the kind of experiment: Inhibition of PDE4D2 in rat UMR106 cell lysates at 1 uM after 15 mins using [3H]cAMP by scintillation proximity assay. The test is classed as cell-free.
For test [5], the system named is UMR106. Briefly: Inhibition of PDE4D2 in rat UMR106 cells coexpressing pCRE-luc assessed as activation of cREB protein after 4 hrs by measuring luciferase activity by luminescence assay. Type of test: cell-based.
For test [6], the system named is UMR106. As to the kind of experiment: Inhibition of PDE4D2 in rat PTHrP-stimulated UMR106 cells coexpressing pCRE-luc assessed as activation of cREB protein after 4 hrs by measuring luciferase activity by luminescence assay. The test is classed as cell-based.
Test [7] in a line: Inhibition of rat PDE4D2 in UMR106 cell lysates after 15 mins using [3H]cAMP by scintillation proximity assay. The test is classed as cell-free.
Test [8] is described as follows: Inhibition of PDE in rat UMR106 cells co-expressing CRE-luc assessed as PTH-induced cAMP accumulation by luciferase reporter gene assay. Type of test: cell-based.

Consider `CCOC(=O)c1c(NC(=O)Cc2ccccc2)sc2c1CCCC2`, for which the IC50 in test [1] is 1500 nM. The inhibition in test [2] is 68%. For the same compound, in the test on UMR106 [3], the inhibition result is “Active”.
Take `CCOC(=O)c1c(NC(=O)Cc2cccc(OC)c2)sc2c1CCN(C(=O)OCC)C2`: the inhibition in the test on UMR106 [4] amounted to 9%.
Regarding `CCOC(=O)c1c(NC(=O)Cc2cccs2)sc2c1CCCC2`, in the test with UMR106 [3], the inhibition entry is “Active”.
For the compound `CCOC(=O)N1CCc2c(sc(NC(=O)Cc3cccs3)c2C(=O)OC2CCCC2)C1`, the values for the inhibition entry (in the test with UMR106 [5]; in test [2]; with UMR106 [6]) were “Dose-dependent effect”, 95% and “Dose-dependent effect”, respectively.
Turning to `CCNC(=O)N1CCc2c(sc(NC(=O)Cc3cccs3)c2C(=O)OC2CCCC2)C1`, in test [2], the inhibition is 88%.
On to `CCOC(=O)c1c(NC(=O)Cc2ccccc2OC)sc2c1CCN(C(=O)OCC)C2`, for which the inhibition with UMR106 [4] stood at 37%.
With `O=C(Cc1ccccn1)Nc1sc2c(c1C(=O)OC1CCCC1)CCN(C(=O)NCc1ccccc1)C2`, in test [2], the inhibition was 65%.
Turning to `CCOC(=O)c1c(NC(=O)Cc2ccccc2)sc2c1CC(C)(C)OC2`, in the test with UMR106 [3], the inhibition entry is “Active”.
For `CCOC(=O)c1c(NC(=O)Cc2ccccc2)sc2c1CCN(C(=O)OCC)C2`, the IC50 in test [1] was 100 nM. Further, the inhibition was 86% in test [2] and 85% with UMR106 [4]. Further, the inhibition result in the test on UMR106 [3] is “Active”.
As for `CCNC(=O)N1CCc2c(sc(NC(=O)Cc3ccccc3)c2C(=O)OCC)C1`, the inhibition in test [2] amounted to 98%.
Regarding `CCOC(=O)c1c(NC(=O)Cc2cccs2)sc2c1CCN(C(=O)OCC)C2`, the half-inhibitory concentration (IC50) in test [7] came out at 182 nM. The inhibition in test [2] worked out at 98%; in the test on UMR106 [4], 70%.
As to `CCOC(=O)c1c(NC(=O)CCc2ccccc2)sc2c1CCN(C(=O)OCC)C2`, in the test on UMR106 [4], the inhibition was 22%.
On to `CCOC(=O)c1c(NC(=O)Cc2ccccc2)sc2c1CCC2`, for which the inhibition result with UMR106 [3] was “Active”.
The same measure, in the same setting: to `CCOC(=O)c1c(NC(=O)c2cccc(S(=O)(=O)N3CCOCC3)c2)sc(C)c1C` belongs “Active”.
Consider `CCOC(=O)c1c(NC(=O)Cc2ccccc2)sc2c1CCN(C(C)=O)C2`, for which the half-inhibitory concentration (IC50) in test [7] was found to be 1000 nM. Moreover, in the test with UMR106 [4], the inhibition is 50%.
Turning to `CCOC(=O)c1c(NCc2ccccc2)sc2c1CCN(C(=O)OCC)C2`, the inhibition in the test on UMR106 [4] is 33%.
Consider `CCOC(=O)c1c(NC(=O)Cc2ccccc2)sc2c1CCNC2`, for which the inhibition in the test with UMR106 [4] was 25%.
The same measure, in the same setting: to `CCOC(=O)c1c(NC(=O)c2ccccc2)sc2c1CCN(C(=O)OCC)C2` belongs 14%; to `N#Cc1c(NC(=O)Cc2ccccc2)sc2c1CCCC2`, 24%.
As to `CCOC(=O)N1CCc2c(sc(NC(=O)Cc3ccccc3)c2C(=O)OC2CCCCC2)C1`, the inhibition in test [2] amounted to 61%.
For the compound `CCOC(=O)c1c(NC(=O)Cc2ccccn2)sc2c1CCN(C(=O)OCC)C2`, the 50% inhibitory concentration (IC50) in test [7] was found to be 80 nM. Moreover, the inhibition in test [2] is 72%; in the test with UMR106 [4], 73%.
Regarding `CCOC(=O)c1c(NC(=O)Cc2ccc(OC)cc2)sc2c1CCN(C(=O)OCC)C2`, the inhibition came out at 23% in test [2] and 26% in the test on UMR106 [4].
On to `CCOC(=O)c1c(NC(=O)Cc2ccc(S(C)(=O)=O)cc2)sc2c1CCN(C(=O)OCC)C2`, for which the inhibition with UMR106 [4] is -4%.
Take `CCOC(=O)N1CCc2c(sc(NC(=O)Cc3ccccc3)c2C(N)=O)C1`: the inhibition in test [2] is -1%; with UMR106 [4], 18%.
On to `COc1ccc(C2CNC(=O)C2)cc1OC1CCCC1` (stereo unspecified) [ROLIPRAM], for which the IC50 in test [8] is 600 nM.
As to `CCOC(=O)c1c(NC(=O)Cc2ccccc2)sc2c1CCN(C(=O)OC(C)(C)C)C2`, the inhibition in test [2] amounted to 38%.
In the case of `NC(=O)c1c(NC(=O)Cc2ccccc2)sc2c1CCCC2`, the inhibition in the test on UMR106 [4] was determined as 15%.

By IC50 is commonly meant the concentration that gives 50% inhibition. As a reminder, the inhibition is the relative decrease from the control value, in per cent.
